Assay results taken from patent publication US20150202313A1, “Macromolecular Prodrugs for Hard Tissue and Methods of Use Thereof” (New York Society for The Ruptured and Crippled Maintaining …, priority 2012, published 2015).

Legend:
[1] = tested on: open fracture mouse model (femoral shaft fracture); test: Therapeutic efficacy in open fracture mouse model, micro-CT analysis of callus; format: in vivo, Swiss Webster mice
Method: Ten-week-old male Swiss Webster mice were purchased from Charles River Laboratories, and maintained under standard housing conditions. The animals were acclimated for at least 1 week before any experimental procedure. Under general anesthesia with isoflurane, the hips, thighs, and knees on the right side of the animal were prepared with Betadine (povidone-iodine) solution. A 1.0 cm right medial parapatellar incision was made on the right knee. The patella was dislocated laterally to expose the femoral condyles. A 25-guage needle was introduced into the canal and driven in a retrograde intramedullary fashion to the level of the greater trochanter. Distally, the needle was cut flush with the cortex (length was about 1.4 cm) so as not to interfere with motion of the knee. […] Postoperatively, mice were placed on clean paper towels in their cages (to avoid inhalation/aspiration of the bedding material) and monitored until the animals were fully awake. The mice were monitored for signs of pain with analgesia and antibiotics given according to established protocol. […]
For the quantitative analysis, we specifically focused on the site of fracture callus formation. […] The following parameters were measured and calculated: callus volume (Cl.V), callus thickness (Cl.Th), callus separation (Cl.Sp) and the ratio of callus surface to volume (Cl.S/Cl.V). […]

[2] = tested on: open fracture mouse model (femoral shaft fracture); test: Therapeutic efficacy in open fracture mouse model, Safranin O histology of callus; format: in vivo, Swiss Webster mice; conditions: 21 days post fracture
Method: Ten-week-old male Swiss Webster mice were purchased from Charles River Laboratories, and maintained under standard housing conditions. The animals were acclimated for at least 1 week before any experimental procedure. Under general anesthesia with isoflurane, the hips, thighs, and knees on the right side of the animal were prepared with Betadine (povidone-iodine) solution. A 1.0 cm right medial parapatellar incision was made on the right knee. The patella was dislocated laterally to expose the femoral condyles. A 25-guage needle was introduced into the canal and driven in a retrograde intramedullary fashion to the level of the greater trochanter. Distally, the needle was cut flush with the cortex (length was about 1.4 cm) so as not to interfere with motion of the knee. Controlled unilateral transverse femoral shaft fractures were created with a #15 blade. […] Postoperatively, mice were placed on clean paper towels in their cages (to avoid inhalation/aspiration of the bedding material) and monitored until the animals were fully awake. The mice were monitored for signs of pain with analgesia and antibiotics given according to established protocol. […]
After micro-CT analysis, the fractured femurs were decalcified using 14% EDTA at room temperature for 30 days. […] The specimens were then paraffin embedded, sectioned (5 μm thickness), stained with Safranin 0 and histologically evaluated.

[3] = Weight loss side effect during treatment; conditions: in vivo
Text: Eighteen 10-week-old male Swiss Webster mice were osteotomized and randomly assigned into three groups (6 mice/group). […] The overall SIM doses given to the SIMA and SIM/SIM-mPEG were equivalent. All mice were euthanized 21 days post osteotomy.

Compound: CCC(C)(C)C(=O)O[C@H]1C[C@@H](C)C=C2C=C[C@H](C)[C@H](CC[C@@H](O)C[C@@H](O)CC(=O)O)[C@H]21 [SIMA, simvastatin acid]
- quantitative morphometric indices of callus (micro-CT), comparison with CON ([1]; 21 days post osteotomy, SIMA equiv. SIM 6 mg/kg/day i.p., micelles equiv. SIM 42 mg/kg/wk i.v.): No statistical significance
- mineralization of the fracture callus (micro-CT images) ([1]; 21 days post-fracture): less mineralized callus formation at the fracture site
- histological features of callus sections (Safranin O) [2]: intermediate stage between CON and SIM/SIM-mPEG groups
- side effect of weight loss [3]: weight loss observed
